US6020374A, “Biologically active synthetic dye compounds” (priority 1998, dated 2000)

Key:
Assay type in all cases: cell-based
[1] = tested on: PI3-kinase; assay: Anti-IRS-1 precipitable PI3-kinase activity in MCF-7 cells; conditions: 5 mins., ATA or EB 300 μg/ml
Protocol: FIG. 5 is the effect of ATA and EB on the anti-IRS-1 precipitable PI3-kinase activity: Cells were treated as in FIG. 3a. Anti-IRS-1 immunoprecipitates were washed and the pellets incubated with phosphatidyl inositol and γ^32 P-ATP.
Phosphorylation of phosphatidyl inositol was measured as follows. Cells were solubilized in Buffer C and the extracts immunoprecipitated at 4° C. with IRS-1 antibody and adsorbed onto protein A-Sepharose beads. The immunoprecipitates were washed three times with Buffer C and then washed once with Buffer B, Buffer E and Buffer F. The lipid kinase reaction was initated by addition of 100 μl sonicated phosphatidylinositol (10 μg) in kinase buffer (20 mM Hepes, pH 7.5, 10 mM MnCl2 and 10 mM MgCl2) containing 10 μCi [γ^32 P]ATP (3000 ci/m mol; Amersham). The reaction was performed at room temperature for 10 mins. and terminated by the addition of 100 μl 1 N HCl. Lipids were extracted by addition of 200 μl of a 1:1 mixture of chloroform/methanol, followed by vortexing and centrifugation at 14,000×g for 10 mins. The chloroform-containing lipid phase was then re-extracted with 150 μl of a 1:1 mixture of 1N HCl/methanol, followed by vortexing and centrifugation at 14,000×g for 10 mins. The 30 μl of the chloroform phase were resolved by thin layer chromatography using a chloroform/methanol/ammonium hydroxide (90:70:20 v/v)) running buffer. […]

[2] = molecular target: T1, IR (Rattus norvegicus, UniProt P15127); assay: Tyrosine phosphorylation of IR in FaO cells; conditions: EB; for Tyrosine phosphorylation of IR: 5 mins., ATA at 200 μg/ml
T1 construct: determined in the rat hepatoma cell line FaO; endogenous in cells; host or cells: FaO (rat hepatoma)
T1 sequence (P15127 764-1383 limits assumed): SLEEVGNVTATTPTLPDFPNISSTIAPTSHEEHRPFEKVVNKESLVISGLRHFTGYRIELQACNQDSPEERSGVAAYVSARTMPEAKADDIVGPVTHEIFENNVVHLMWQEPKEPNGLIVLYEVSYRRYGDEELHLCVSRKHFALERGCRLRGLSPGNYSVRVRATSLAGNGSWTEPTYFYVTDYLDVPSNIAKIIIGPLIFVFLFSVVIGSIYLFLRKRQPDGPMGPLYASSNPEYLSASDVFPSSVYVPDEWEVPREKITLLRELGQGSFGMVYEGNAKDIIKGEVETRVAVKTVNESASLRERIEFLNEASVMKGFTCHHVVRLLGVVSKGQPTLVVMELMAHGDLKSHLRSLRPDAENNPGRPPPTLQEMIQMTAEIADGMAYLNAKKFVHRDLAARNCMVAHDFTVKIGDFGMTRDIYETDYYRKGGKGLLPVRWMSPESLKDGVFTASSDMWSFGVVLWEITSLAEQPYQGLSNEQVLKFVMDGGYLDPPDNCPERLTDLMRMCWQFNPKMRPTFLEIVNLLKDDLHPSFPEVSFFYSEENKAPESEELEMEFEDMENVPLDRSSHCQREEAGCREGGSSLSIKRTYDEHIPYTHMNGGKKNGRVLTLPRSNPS
T1 sequence (P15127 27-759 limits assumed): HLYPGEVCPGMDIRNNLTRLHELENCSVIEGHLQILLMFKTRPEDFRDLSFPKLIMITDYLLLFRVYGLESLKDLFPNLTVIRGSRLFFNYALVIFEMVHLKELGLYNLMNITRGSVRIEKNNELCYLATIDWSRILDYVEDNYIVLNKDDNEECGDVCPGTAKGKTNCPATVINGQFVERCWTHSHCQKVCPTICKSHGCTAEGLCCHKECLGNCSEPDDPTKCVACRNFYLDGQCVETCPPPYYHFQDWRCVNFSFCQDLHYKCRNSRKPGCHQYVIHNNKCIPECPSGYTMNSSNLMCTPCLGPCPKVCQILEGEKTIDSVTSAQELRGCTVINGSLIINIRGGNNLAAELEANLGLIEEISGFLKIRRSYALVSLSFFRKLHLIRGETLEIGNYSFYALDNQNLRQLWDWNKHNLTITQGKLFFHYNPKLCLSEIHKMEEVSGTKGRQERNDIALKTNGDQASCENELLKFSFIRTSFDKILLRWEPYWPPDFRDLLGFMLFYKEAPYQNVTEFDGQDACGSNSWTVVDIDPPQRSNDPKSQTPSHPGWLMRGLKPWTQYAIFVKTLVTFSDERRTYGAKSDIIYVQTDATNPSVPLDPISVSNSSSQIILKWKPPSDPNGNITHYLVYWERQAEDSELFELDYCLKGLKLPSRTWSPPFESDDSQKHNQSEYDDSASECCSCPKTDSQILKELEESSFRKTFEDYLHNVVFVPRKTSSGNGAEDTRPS
Protocol: FIG. 9 is the tyrosine phosphorylation of the IR cascade in Fao cells: A--Immunoblot analysis: Fao cells were deprived of serum for 20 hours, then incubated with EB, ATA, at 200 μg/ml or insulin at 600 ng/ml for 5 mins. Cell extracts were subjected to immunoprecipitation with antibodies to: IR β-subunit (αIR), IRS-1 (αIRS-1) and to IRS-2 (αIRS-2). The immunoprecipitates and total cell extracts were analyzed by SDS-PAGE. Proteins were transferred to nitrocellulose papers, and phosphotyrosine containing proteins were probed with anti-phosphotyrosine antibodies (αP-Tyr), antibody to the 85-kDa subunit of PI3-kinase (αp85) and antibodies to active MAPK (α active MAPK). The immunoblots were visualized by ECL (Amersham).
B--Kinetics of IR phosphorylation: Cells were treated either with 200 μg/ml EB for the indicated times (top panel) or with the indicated concentrations of EB for 5 mins. (middle panel). A 3 hour preincubation with vanadate preceded the 5 min. incubations with EB and insulin (bottom panel).
(§1) MCF-7 cells were grown in 35 or 100 mm dishes in DMEM with 5% bovine fetal serum. Rat hepato FaO cells were grown in RPMI 1640 medium supplemented with 10% fetal calf serum. Subconfluent monolayers of MCF-7 cells or FaO cells, were deprived of serum for 20 hours prior to each experiment. The medium was removed, and cells were incubated at 37° C. under the conditions as indicated for each experiment. The reaction was terminated by removing the medium and freezing the monolayers with liquid nitrogen. In some experiments, cells were preincubated with 50 μM sodium orthovanadate for 3 hours.
Cells were solubilized in Buffer A or C. Extracts were immunoprecipitated at 4° C. with antibodies to IRS-1, IRS-2, IGF-1 or IR receptor or Grb2, adsorbed on protein A-Sepharose beads. The immunocomplexes were pelleted by centrifugation at 12,000×g and washed twice with Buffer A, and twice with Buffer A containing 0.1% Triton x-100. The pellets were then suspended in Laemmli sample buffer and resolved on 7.5% SDS-PAGE.
(§2) Nitrocellulose blots of proteins were incubated with the antibodies, and proteins were detected by enhanced chemiluminescence using horseradish peroxidase-labeled protein A, horseradish peroxidase-labeled anti rabbit IgG or horseradish peroxidase-labeled anti-mouse IgG.
The ability of EB and ATA to phosphorylate the IR was determined in the rat hepatoma cell line FaO. […] Phosphorylation is maximal after a 1 min. exposure to 70 μg/ml of EB (FIG. 9B, top and middle panels).

[3] = tested on: 185 kDa protein(s) (p185); assay: Tyrosine phosphorylation of p185 in MCF-7 cells (anti-phosphotyrosine immunoblot); conditions: MCF-7 cells; for Tyrosine phosphorylation of a 185 kDa protein(s): ATA, EB each at 300 μg/ml, IGF-1 at 20 ng/ml; for Exposure time at which p185 phosphorylation peaked: 300 μg/ml ATA, 30 μg/ml EB
Protocol: FIG. 1 is the effect of ATA and EB on tyrosine phosphorylation: MCF-7 cells, grown in 35 mm dishes were solubilized in Buffer A (a) or Buffer B (b-c). The solubilized cells were subjected to 7.5% SDS-PAGE and immunoblotted with an anti-phosphotyrosine antibody. (a) Cells treated for 5 mins. with ATA, EB, each at 300 μg/ml, IGF-1 at 20 ng/ml, or without additives (CON); (b) Cells treated with 300 μg/ml ATA for the indicated times; (c) Cells treated with 30 μg/ml EB for the indicated times; (d) Cells treated for 5 mins. with the indicated concentrations of ATA; (e) Cells treated for 5 mins. with the indicated concentrations of EB. Molecular mass markers (in kDa) are indicated on the right.
FIG. 2 is the effect of ATA and vanadate on the IGF-1 stimulated tyrosine phosphorylation of p185: A--Cells treated for 5 mins. with the indicated concentrations of IGF-1 in the presence or absence of 300 μg/ml ATA; B--Cells pre-incubated for 3 hours with or without 50 μM vanadate were incubated for 5 mins. with ATA, EB each at 300 μg/ml or with 10 ng/ml IGF-1 in the presence or absence of vanadate. Cytosols extracted in Buffer B were analyzed by immunoblotting with anti-phosphotyrosine antibody as in FIG. 1.
FIG. 8 is the effect of fractionated ATA on p185 phosphorylation: A--Crude ATA was separated on a Bio-Rad P-4 column and the combined void volume was then gel filtrated on a column of Bio-Rad P-10. The column was calibrated with the following molecular weight markers: DB-Dextran blue; CC-cytochrome C: Ins-insulin; B12-Vitamin B12. B--MCF-7 cells were incubated for 5 mins. with the indicated fractions of ATA (eluted from the P-10 column shown in A), crude ATA, each at 200 μg/ml or IGF-1 at 20 ng/ml. Cytosols, solubilized in Buffer B were subjected to 7.5% SDS-PAGE and immunoblotted with phosphotyrosine antibody.
as §1
Cells were solubilized at 4° C. with 0.2 ml/35 mm dish or 2 ml/100 mm dish of the indicated buffer. The solubilized cells were scraped and sedimented by centrifugation at 12,000×g for 30 mins. at 4° C. Aliquots of the supernatants were normalized for protein, mixed with concentrated (5×) Laemmli sample buffer, boiled for 10 mins. and resolved on 7.5 or 12% SDS-PAGE under reducing conditions.
as §2

[4] = tested on: 3T3 L1 adipocytes; assay: Glycogen synthesis in 3T3 L1 adipocytes; conditions: 20 mins., EB, ATA 200 μg/ml, insulin 600 ng/ml
Protocol: FIG. 11 is the metabolic effects in 3T3 L1 adipocytes: Fully differentiated 3T3 L1 adipocytes were incubated with EB, ATA or fuchsin (FUCH) each at 200 μg/ml, or with 600 ng/ml of insulin for 20 mins. (A, B, C) or 5 mins. (D). CON indicates no additive.
B--Glycogen synthesis. Cells were incubated with (^14 C)-glucose for 10 mins. Radioactivity was determined in the precipitated glycogen fraction.

Compound	PI3-kinase activity (anti-IRS-1 precipitable) [1]	Tyrosine phosphorylation of IR [2]	Concentration of maximal p185 phosphorylation ([3]; 5 mins.)	Effect on IGF-1 induced phosphorylation of the 185 kDa protein(s) ([3]; 5 mins., 300 μg/ml ATA with IGF-1)	pp185 (arbitrary units) ([3]; 5 mins., ATA fractions or crude ATA each at 200 μg/ml, scanned autoradiogram from FIG. 8B, Control 100)	Tyrosine phosphorylation of a 185 kDa protein(s) ([3]; 5 mins.)	Exposure time at which p185 phosphorylation peaked [3]	Glycogen synthesis [4]	Concentration of maximal IR phosphorylation [2]	Exposure time of maximal IR phosphorylation [2]
O=C(O)C1=CC(=C(c2ccc(O)c(C(=O)O)c2)c2ccc(O)c(C(=O)O)c2)C=CC1=O [ATA, Aurintricarboxylic acid]	increases PI3-kinase activity similar to IGF-1	phosphorylates IR on tyrosine residues, similar to insulin	300 to 400 µg/mL	unaffected	668 arbitrary units	enhanced tyrosine phosphorylation of a 185 kDa protein(s)	2 min	increase	–	–
Cc1cc(-c2ccc(N=Nc3ccc4c(S(=O)(=O)O)cc(S(=O)(=O)O)c(N)c4c3O)c(C)c2)ccc1N=Nc1ccc2c(S(=O)(=O)O)cc(S(=O)(=O)O)c(N)c2c1O [EB, Evan's Blue]	increases PI3-kinase activity similar to IGF-1	phosphorylates IR on tyrosine residues, similar to insulin	300 to 400 µg/mL	–	–	enhanced tyrosine phosphorylation of a 185 kDa protein(s)	5 min	increase	70 µg/mL	1 min
